Laboratory results taken from PubChem BioAssay (NCI).
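Where inhibition never reached the appropriate level, the endpoint shown equals the highest concentration tested. Otherwise, values were interpolated linearly from a five-concentration, 48-hour dose response in 96-well plates. At the TGI there is no net growth.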

What was measured:
Experiment in all cases: NCI tumour cell line growth inhibition, 48 h
786-0 renal = system: 786-0 renal
A498 renal = system: A498 renal
A549 NSCLC = system: A549 NSCLC
ACHN renal = system: ACHN renal
BT-549 breast = system: BT-549 breast
CAKI-1 renal = system: CAKI-1 renal
COLO 205 colon = system: COLO 205 colon
DU-145 prostate = system: DU-145 prostate
EKVX NSCLC = system: EKVX NSCLC
HCC-2998 colon = system: HCC-2998 colon
HCT-116 colon = system: HCT-116 colon
HCT-15 colon = system: HCT-15 colon
HOP-62 NSCLC = system: HOP-62 NSCLC
HOP-92 NSCLC = system: HOP-92 NSCLC
HS 578T breast = system: HS 578T breast
K-562 leukemia = system: K-562 leukemia
KM12 colon = system: KM12 colon
LOX IMVI melanoma = system: LOX IMVI melanoma
M14 melanoma = system: M14 melanoma
MALME-3M melanoma = system: MALME-3M melanoma
MCF7 breast = system: MCF7 breast
MDA-MB-231 breast = system: MDA-MB-231 breast
MDA-MB-435 = system: MDA-MB-435
MDA-N = system: MDA-N
MOLT-4 leukemia = system: MOLT-4 leukemia
NCI-H226 lung = system: NCI-H226 lung
NCI-H23 lung = system: NCI-H23 lung
NCI-H460 lung = system: NCI-H460 lung
NCI-H522 lung = system: NCI-H522 lung
NCI/ADR-RES ovarian = system: NCI/ADR-RES ovarian
OVCAR-3 ovarian = system: OVCAR-3 ovarian
OVCAR-4 ovarian = system: OVCAR-4 ovarian
OVCAR-5 ovarian = system: OVCAR-5 ovarian
OVCAR-8 ovarian = system: OVCAR-8 ovarian
PC-3 prostate = system: PC-3 prostate
RPMI-8226 leukemia = system: RPMI-8226 leukemia
RXF 393 renal = system: RXF 393 renal
SF-268 CNS = system: SF-268 CNS
SF-295 CNS = system: SF-295 CNS
SF-539 CNS = system: SF-539 CNS
SK-MEL-2 melanoma = system: SK-MEL-2 melanoma
SK-MEL-28 melanoma = system: SK-MEL-28 melanoma
SK-MEL-5 melanoma = system: SK-MEL-5 melanoma
SK-OV-3 ovarian = system: SK-OV-3 ovarian
SNB-19 CNS = system: SNB-19 CNS
SNB-75 CNS = system: SNB-75 CNS
SW-620 colon = system: SW-620 colon
T-47D breast = system: T-47D breast
TK-10 renal = system: TK-10 renal
U251 CNS = system: U251 CNS
UACC-257 melanoma = system: UACC-257 melanoma
UACC-62 melanoma = system: UACC-62 melanoma
UO-31 renal = system: UO-31 renal
CCRF-CEM leukemia = system: CCRF-CEM leukemia
HL-60(TB) leukemia = system: HL-60(TB) leukemia
HT29 colon = system: HT29 colon
IGROV1 ovarian = system: IGROV1 ovarian
SN12C renal = system: SN12C renal
SR leukemia = system: SR leukemia

COC(=O)[C@H](Cc1ccccc1)NC(=O)NCCN(CCNC(=O)N[C@@H](Cc1ccccc1)C(=O)OC)C(=O)N[C@@H](Cc1ccccc1)C(=O)OC
TGI (786-0 renal): 34.1 µM
TGI (A498 renal): > 82.7 µM
TGI (A549 NSCLC): 54.3 µM
TGI (ACHN renal): 51.6 µM
TGI (BT-549 breast): 39.2 µM
TGI (CAKI-1 renal): > 63.6 µM
TGI (COLO 205 colon): 40.9 µM
TGI (DU-145 prostate): 41.6 µM
TGI (EKVX NSCLC): > 61.7 µM
TGI (HCC-2998 colon): 34.8 µM
TGI (HCT-116 colon): 35.8 µM
TGI (HCT-15 colon): > 100 µM
TGI (HOP-62 NSCLC): 39.8 µM
TGI (HOP-92 NSCLC): 70 µM
TGI (HS 578T breast): 45.3 µM
TGI (K-562 leukemia): 61 µM
TGI (KM12 colon): 39.5 µM
TGI (LOX IMVI melanoma): 76.3 µM
TGI (M14 melanoma): 45.7 µM
TGI (MALME-3M melanoma): 37.8 µM
TGI (MCF7 breast): 61.8 µM
TGI (MDA-MB-231 breast): 46.5 µM
TGI (MDA-MB-435): 45 µM
TGI (MDA-N): 32.9 µM
TGI (MOLT-4 leukemia): 45 µM
TGI (NCI-H226 lung): 34.6 µM
TGI (NCI-H23 lung): 36.1 µM
TGI (NCI-H460 lung): 34.8 µM
TGI (NCI-H522 lung): 29.6 µM
TGI (NCI/ADR-RES ovarian): > 100 µM
TGI (OVCAR-3 ovarian): 39.7 µM
TGI (OVCAR-4 ovarian): 30 µM
TGI (OVCAR-5 ovarian): 35.2 µM
TGI (OVCAR-8 ovarian): 34.6 µM
TGI (PC-3 prostate): 40.6 µM
TGI (RPMI-8226 leukemia): 46.3 µM
TGI (RXF 393 renal): 31.9 µM
TGI (SF-268 CNS): 31.5 µM
TGI (SF-295 CNS): 35.3 µM
TGI (SF-539 CNS): 47.1 µM
TGI (SK-MEL-2 melanoma): 42.5 µM
TGI (SK-MEL-28 melanoma): 35.4 µM
TGI (SK-MEL-5 melanoma): 37.4 µM
TGI (SK-OV-3 ovarian): > 60.8 µM
TGI (SNB-19 CNS): 48.2 µM
TGI (SNB-75 CNS): 35.9 µM
TGI (SW-620 colon): 43.8 µM
TGI (T-47D breast): 49.6 µM
TGI (TK-10 renal): 37.3 µM
TGI (U251 CNS): 41.2 µM
TGI (UACC-257 melanoma): 40.4 µM
TGI (UACC-62 melanoma): 49.8 µM
TGI (UO-31 renal): 45.5 µM

O=c1n(/N=C/c2ccccc2)c(=O)n2n1C1C=CC2CC1
TGI (786-0 renal): > 100 µM
TGI (A498 renal): > 100 µM
TGI (A549 NSCLC): > 100 µM
TGI (ACHN renal): > 100 µM
TGI (BT-549 breast): > 100 µM
TGI (CAKI-1 renal): > 100 µM
TGI (CCRF-CEM leukemia): > 100 µM
TGI (COLO 205 colon): > 100 µM
TGI (DU-145 prostate): > 100 µM
TGI (EKVX NSCLC): > 100 µM
TGI (HCT-116 colon): > 100 µM
TGI (HCT-15 colon): > 100 µM
TGI (HL-60(TB) leukemia): > 100 µM
TGI (HOP-62 NSCLC): > 100 µM
TGI (HOP-92 NSCLC): > 100 µM
TGI (HS 578T breast): > 100 µM
TGI (HT29 colon): > 100 µM
TGI (IGROV1 ovarian): > 100 µM
TGI (K-562 leukemia): > 100 µM
TGI (KM12 colon): > 100 µM
TGI (LOX IMVI melanoma): > 100 µM
TGI (M14 melanoma): > 100 µM
TGI (MCF7 breast): > 100 µM
TGI (MDA-MB-231 breast): > 100 µM
TGI (MDA-MB-435): > 100 µM
TGI (MDA-N): > 100 µM
TGI (MOLT-4 leukemia): > 100 µM
TGI (NCI-H226 lung): > 100 µM
TGI (NCI-H23 lung): > 100 µM
TGI (NCI-H460 lung): > 100 µM
TGI (NCI/ADR-RES ovarian): > 100 µM
TGI (OVCAR-3 ovarian): > 100 µM
TGI (OVCAR-5 ovarian): > 100 µM
TGI (OVCAR-8 ovarian): > 100 µM
TGI (PC-3 prostate): > 100 µM
TGI (RPMI-8226 leukemia): > 100 µM
TGI (SF-268 CNS): > 100 µM
TGI (SF-295 CNS): > 100 µM
TGI (SF-539 CNS): > 100 µM
TGI (SK-MEL-2 melanoma): > 100 µM
TGI (SK-MEL-28 melanoma): > 100 µM
TGI (SK-MEL-5 melanoma): > 100 µM
TGI (SK-OV-3 ovarian): > 100 µM
TGI (SN12C renal): > 100 µM
TGI (SNB-19 CNS): > 100 µM
TGI (SNB-75 CNS): > 100 µM
TGI (SR leukemia): > 100 µM
TGI (SW-620 colon): > 100 µM
TGI (T-47D breast): > 100 µM
TGI (TK-10 renal): > 100 µM
TGI (U251 CNS): > 100 µM
TGI (UACC-257 melanoma): > 100 µM
TGI (UACC-62 melanoma): > 100 µM
TGI (UO-31 renal): > 100 µM
